Measurements from patent US20230150951A1, “2,5- OR 2,6-DISUBSTITUTED HYDROQUINONE DERIVATIVES WITH AT LEAST ONE CARBOXY, SULFO OR AMIDO GROUP USEFUL AS MEDICAMENTS” (OM PHARMA SA, priority 2020, published 2023).
pIC50: −log10 of the molar value.

Experiments:
Format in all cases: cell-based
Human neutrophils [1] = assay: Neutrophil adhesion under static conditions; settings: fMLP-stimulated adhesion to fibrinogen; method: 40 μM and 80 μM, concentration of the value not stated
Description: Human neutrophils obtained from buffy coats of healthy donors were suspended at 3×10^6/ml in adhesion buffer (PBS containing 1 mM CaCl2)/MgCl2 and 10% FCS, pH 7.2). Neutrophils were preincubated for 30 min at 37° C. with 40 μM and 80 μM of the compounds.
Adhesion assays were performed on 18-well glass slides coated for 18 h at 4° C. with human fibrinogen (20 μg/well in endotoxin-free PBS); 20 μl of cell suspension were added to each well and stimulated for 1 min at 37° C. with 5 μl of fMLP 1 nM final concentration. After washing, adherent cells were fixed in glutaraldehyde 1.5% in PBS and counted by computer-assisted enumeration. Statistical analysis was performed by calculating mean and standard deviation (SD); significance was calculated by unpaired t-test. All statistical analyses were performed using GraphPad Prism 6 (GraphPad Software).

FGF-1 = biological target: T1, FGF-1 (Homo sapiens, UniProt P05230); assay: FGF-1 induced sprouting of HUVEC, spheroid-based cellular angiogenesis assay; settings: FGF-1 25 ng/mL preincubated with compound, 24 h
T1 construct: purchased Peprotech 100-17A
T1 sequence (P05230 whole entry): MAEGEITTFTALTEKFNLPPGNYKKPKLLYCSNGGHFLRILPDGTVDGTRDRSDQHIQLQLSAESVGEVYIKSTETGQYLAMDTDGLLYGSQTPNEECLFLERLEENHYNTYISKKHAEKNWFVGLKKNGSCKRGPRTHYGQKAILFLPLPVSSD
Description: (§1) Aim of this in vitro method is to assess compounds effects on FGF-2, FGF-1, or VEGF-A induced sprouting of human umbilical vein endothelial cells (HUVEC) in the spheroid-based cellular angiogenesis assay. Before adding the growth factors to the cells, they were preincubated with the compound. Sunitinib was tested as a control (without preincubation).
(§2) IC50 values determined for the tested compounds are expressed in microM [μM] and the values for the inhibition of FGF-1, FGF2 and VEGF-A induced growth (sprouting) are listed after each compound in the examples after chemical characterization.
(§3) Sprouting test was performed on the compounds dissolved in DMSO to reach 100-fold concentrated stock solutions and dissolved in culture media. Sunitinib as reference compound was provided by ProQinase GmbH. Growth factors were purchased from rhFGF-basic (FGF-2), Peprotech, New Jersey, USA, #100-18C, Lot #0415571; rhFGF-acidic (FGF-1), Peprotech, New Jersey, USA, #100-17A, Lot #031207; hVEGF-A165 (ProQinase GmbH, Freiburg, Germany; 05.02.2010) were used for stimulation of HUVEC cells growth.
(§4) Test system: Endothelial cells from human umbilical vein (HUVEC) from pooled donors were stored frozen with 70% medium, 20% FCS, 10% DMSO at about 1×10^6 cells/ampoule. HUVEC cells, primary human umbilical vein endothelial cells (PromoCell, Heidelberg, Germany), were used after passage 3 to 4. Morphology of the cells are adherent, cobblestone-like growing as monolayer and were cultured in endothelial cell growth and basal medium (ECGM/ECBM, PromoCell). The subculture was split 1:3; every 3-5 days, seed out at ca. 1×10^4 cells/cm^2 and incubated at 37° C. with 5% CO2 with a doubling time 24-48 hours
(§5) Dilution of test compounds: 100× concentrated solutions (concerning to the final assay concentrations) of each test compound were prepared with the appropriate solvent (in DMSO or in water). These 100×compound solutions were further diluted in endothelial cell growth and basal medium (ECBM) 1:7.5 to get a 13.33× concentrated solution. 75 μl of the 13.33×solution was subsequently mixed with 25 μl of 40× concentrated stimulus (solved in ECBM), resulting in a 10×concentrated stimulus/compound mixture. This mixture (100 μl) was incubated for 30 min at 37° C. and then added to 900 μl gel, containing the HUVEC spheroids (resulting in the final assay concentration).
(§6) Test method: the experiments were pursued in modification of the originally published protocol (Korff and Augustin: J Cell Sci 112: 3249-58, 1999). In brief, spheroids were prepared as described (Korff and Augustin: J Cell Biol 143: 1341-52, 1998) by pipetting 400 HUVEC in a hanging drop on plastic dishes to allow overnight spheroid aggregation. 50 HUVEC spheroids were then seeded in 0.9 ml of a collagen gel and pipetted into individual wells of a 24 well plate to allow polymerization. The test compounds were preincubated with the growth factors (FGF-1, FGF-2 or VEGF-A final concentration 25 ng/mL) in a 10-fold concentrated solution and subsequently, 100 μl of this solution was added on top of the polymerized gel. All compounds were diluted in solvent (DMSO or water) as 100×stocks first (which means 100×stocks of each final assay concentration were prepared in solvent). Subsequently, these stocks were further diluted in medium (resulting in the 13.33×stocks of each final assay concentration) with final concentrations tested: 100, 50, 25, 12.5, 6.25, 3.13 and 1.56×10^−6 M). Plates were incubated at 37° C. for 24 hours and fixed by adding 4% PFA (Roth, Karlsruhe, Germany).
(§7) Quantification of growth factor inhibition: sprouting intensity of HUVEC spheroids treated with the growth factor and the inhibitors were quantitated by an image analysis system determining the cumulative sprout length per spheroid (CSL).

FGF-2 = biological target: T2, FGF-2 (Homo sapiens, UniProt P09038); assay: FGF-2 induced sprouting of HUVEC, spheroid-based cellular angiogenesis assay; settings: FGF-2 25 ng/mL preincubated with compound, 24 h
T2 construct: purchased Peprotech 100-18C
T2 sequence (P09038 134-288): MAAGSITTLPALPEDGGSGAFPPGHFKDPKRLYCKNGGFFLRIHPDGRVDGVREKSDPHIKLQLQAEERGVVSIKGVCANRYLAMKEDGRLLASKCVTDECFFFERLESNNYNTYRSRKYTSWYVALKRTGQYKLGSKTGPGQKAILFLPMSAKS
Description: as §1, §2, §3, §4, §5, §6, §7

VEGF-A = biological target: T3, VEGF-A (Homo sapiens, UniProt P15692); assay: VEGF-A induced sprouting of HUVEC, spheroid-based cellular angiogenesis assay; settings: VEGF-A 25 ng/mL preincubated with compound, 24 h, read-out: VEGF-A1 IC50
T3 construct: purchased ProQinase GmbH
T3 sequence (P15692 27-191 isoform P15692-4): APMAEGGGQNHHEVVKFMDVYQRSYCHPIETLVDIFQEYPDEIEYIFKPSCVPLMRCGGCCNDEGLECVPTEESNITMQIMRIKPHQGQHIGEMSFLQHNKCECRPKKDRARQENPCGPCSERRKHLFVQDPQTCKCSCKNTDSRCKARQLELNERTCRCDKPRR
Description: as §1, §2, §3, §4, §5, §6, §7

Human neutrophils [2] = assay: Inhibition of ROS production in human neutrophils (isoluminol chemiluminescence); settings: fMLP+TNF-α stimulated PMN
Excerpt: NADPH oxidase, located in the plasma membrane and in the membranes of specific granules, produces superoxide anions from which other ROS, such as hydrogen peroxide, singlet oxygen, hypochlorite, and active hydroxyl radicals. ROS are released into the surrounding medium or into a membrane-enclosed subcellular organelle. One quick and sensitive method for measuring the generation of these metabolites is chemiluminescence (CL). Isoluminol amplified CL technique, is very sensitive and widely used to study respiratory burst (mainly extracellular production of ROS) induced in neutrophils.
Human neutrophils were isolated from buffy coats which obtained from healthy donors. The isolated neutrophils (3×10^6/ml) were suspended in Hanks' Balanced Salt Solution (HBSS) with Calcium and Magnesium. Neutrophils were pre-incubated with the compounds at different concentrations (0.1, 0.3, 1, 3 and 10 μM) for 30 min at 37° C. The black 96-well cell culture plates were coated with human fibrinogen (0.25 mg/ml in PBS), and incubated overnight at 4° C. or 2 hr at 37° C. Then the plates were washed with endotoxin-free PBS. The neutrophils were incubated (priming) with TNF-α (20 ng/ml) for 10 minutes at 37° C. Thereupon the 75 μl of cell suspension and 75 μl (Isoluminol+HRP solution) were added to each well. The chemiluminescence was recorded (every 25 sec for 250 sec) after fMLP (1 μM) activation using a Multilabel Reader victor3 (Perkin Elmer, USA). Background values, defined as the mean chemiluminescent values of isoluminol diluted in HBSS, were subtracted from all readings (CPS, count per second). The assays were done in duplicate or triplicate.

VEGFR-2 = biological target: T4, VEGFR-2 (Homo sapiens, UniProt P35968); assay: VEGF-165 induced phosphorylation of VEGF-Receptor on HUVEC; settings: HUVEC preincubated 60 min, VEGF165 25 ng/mL 2 min; read-out: VEGFR-Phosphorylation inhibition IC50
T4 construct: endogenous in cells; host or cells: primary HUVEC
T4 sequence (P35968 20-1356): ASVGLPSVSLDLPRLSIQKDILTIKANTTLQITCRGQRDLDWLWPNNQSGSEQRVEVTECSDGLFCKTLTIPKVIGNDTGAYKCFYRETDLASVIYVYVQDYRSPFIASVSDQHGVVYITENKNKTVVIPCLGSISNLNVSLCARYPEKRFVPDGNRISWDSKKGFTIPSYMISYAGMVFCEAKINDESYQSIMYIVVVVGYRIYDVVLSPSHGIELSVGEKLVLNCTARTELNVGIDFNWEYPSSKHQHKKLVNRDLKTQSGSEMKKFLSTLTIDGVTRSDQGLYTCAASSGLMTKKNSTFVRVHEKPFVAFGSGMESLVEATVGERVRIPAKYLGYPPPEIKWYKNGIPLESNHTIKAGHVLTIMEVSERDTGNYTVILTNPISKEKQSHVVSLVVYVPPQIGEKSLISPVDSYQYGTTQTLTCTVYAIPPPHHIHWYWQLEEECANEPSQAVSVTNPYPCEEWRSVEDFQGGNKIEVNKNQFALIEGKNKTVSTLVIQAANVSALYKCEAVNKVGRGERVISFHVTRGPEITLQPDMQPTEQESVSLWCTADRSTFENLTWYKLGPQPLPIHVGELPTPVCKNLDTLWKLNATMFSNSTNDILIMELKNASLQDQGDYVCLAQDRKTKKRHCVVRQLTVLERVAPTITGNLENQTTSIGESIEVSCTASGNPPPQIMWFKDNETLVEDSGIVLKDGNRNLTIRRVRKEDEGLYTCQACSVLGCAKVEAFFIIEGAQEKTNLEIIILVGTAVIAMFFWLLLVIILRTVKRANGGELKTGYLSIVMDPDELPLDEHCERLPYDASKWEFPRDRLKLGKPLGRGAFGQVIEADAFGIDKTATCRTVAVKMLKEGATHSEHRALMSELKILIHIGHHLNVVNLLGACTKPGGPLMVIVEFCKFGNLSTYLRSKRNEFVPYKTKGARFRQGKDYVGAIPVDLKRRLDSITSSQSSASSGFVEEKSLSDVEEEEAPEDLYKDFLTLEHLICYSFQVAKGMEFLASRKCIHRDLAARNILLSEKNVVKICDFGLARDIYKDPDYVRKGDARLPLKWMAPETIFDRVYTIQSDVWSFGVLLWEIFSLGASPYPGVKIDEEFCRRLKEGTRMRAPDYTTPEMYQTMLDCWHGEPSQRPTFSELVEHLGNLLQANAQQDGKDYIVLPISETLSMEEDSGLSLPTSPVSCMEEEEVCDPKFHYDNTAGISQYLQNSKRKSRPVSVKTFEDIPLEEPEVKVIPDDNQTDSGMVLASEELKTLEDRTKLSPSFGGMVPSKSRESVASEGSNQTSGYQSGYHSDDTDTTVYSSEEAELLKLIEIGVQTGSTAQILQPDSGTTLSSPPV
Description: Cell culture: Primary human umbilical vein endothelial cells (HUVECs) were routinely cultured in 0.1% gelatin pre-coated flasks or dishes, up to passage 6. […]
Rabbit primary antibodies for VEGFR-2, p-Tyr1175 were acquired from Cell Signaling Technology (Leiden, The Netherlands). Phospho-VEGFR-2 (Tyr1175) Sandwich ELISA Kit was from Cell Signaling Technology.
[…] Western blot analysis was performed using anti-phospho-VEGFR-2 antibody and total VEGFR-2 was used as a loading control after membrane stripping.
Inhibition of VEGFR-2-phosphorylation results are expressed as IC50 in microM [μM] versus VEGF-treated HUVECs control without inhibitory compound.

[3] = Homo sapiens, Neutrophil, 0.3 μM

Compound | pIC50 (FGF-1) | pIC50 (FGF-2) | pIC50 (VEGF-A) | pIC50 (VEGFR-2) | pIC50 (Human neutrophils [2]; Homo sapiens, Neutrophil) | Neutrophil adhesion inhibition (Human neutrophils [1]) [%] | inhibition at 0.3 µM (Human neutrophils [2]; [3]) [%] | PMN ROS inhibition at 0.3 μM (Human neutrophils [2]; 0.3 μM) [%]
O=C(O)Cc1cc(O)c(C(=O)Nc2ccccc2C(=O)O)cc1O [IIIa-001a, 2-(4-(carboxymethyl)-2,5-dihydroxybenzamido)benzoic acid] | 4.21 | 5.00 | 4.49 | – | – | 30.4 | 74.8 | –
CCOC(=O)Cc1cc(O)c(C(=O)Nc2ccccc2C(=O)OC)cc1O [IIIa-001a-E2, methyl 2-(4-(ethoxycarbonylmethyl)-2,5-dihydroxybenzamido)benzoate] | ≤ 3.70 | 4.48 | 4.37 | – | – | 44.46 | 69.7 | –
CCOC(=O)Cc1cc(O)c(C(=O)Nc2cc(C(=O)OCC)cc(C(=O)OCC)c2)cc1O [IIIa-015a-E3, diethyl 5-(4-(ethoxycarbonylmethyl)-2,5-dihydroxybenzamido)isophthalate] | – | 3.72 | 4.06 | 5.14 | – | 61.22 | 91.4 | –
O=C(O)c1cc(O)c(COCc2cc(O)c(C(=O)O)cc2O)cc1O [IIIc-060a, 4-((2,5-Dihydroxy-4-carboxyphenyl)methoxymethyl)-2,5-dihydroxybenzoic acid] | – | 4.29 | 3.94 | 5.89 | – | 41.38 | 86.8 | –
CCOC(=O)c1cc(OC(C)=O)c(C(=O)Nc2ccccc2-c2nnn[nH]2)cc1OC(C)=O [Ia-001a-Tz-E1-A2, ethyl 4-(2-(1H-tetrazol-5-yl)phenylaminocarbonyl)-2,5-diacetoxybenzoate] | 4.22 | ≤ 3.70 | ≤ 3.70 | – | – | 98.2 | 49.9 | –
O=C(O)c1cc(O)c(C(=O)Nc2cnccc2C(=O)O)cc1O [Ia-023a, 3-(4-carboxy-2,5-dihydroxybenzamido)isonicotinic acid] | – | 4.20 | 3.84 | ≤ 4.00 | – | 13.37 | 62 | –
CCOC(=O)c1cc(O)c(C(=O)Nc2cnccc2C(=O)OCC)cc1O [Ia-023a-E2, ethyl 3-(4-(ethoxycarbonyl)-2,5-dihydroxybenzamido)isonicotinate] | – | 4.12 | 3.85 | 5.18 | – | 34 | 69.5 | –
O=C(O)c1cc(O)c(C(=O)NC(C(=O)O)c2ccc(O)c(O)c2)cc1O (centres unmarked) [Ia-036a, 4-(Carboxy(3,4-dihydroxyphenyl)methylaminocarbonyl)-2,5-dihydroxybenzoic acid] | – | 4.43 | 3.91 | 5.80 | – | 30.77 | – | 87.17

Further lines, with some results ahead:

pIC50 (FGF-1) | pIC50 (FGF-2) | pIC50 (VEGF-A) | pIC50 (VEGFR-2) | pIC50 (Human neutrophils [2]; Homo sapiens, Neutrophil) | Compound | Neutrophil adhesion inhibition (Human neutrophils [1]) [%] | inhibition at 0.3 µM (Human neutrophils [2]; [3]) [%] | PMN ROS inhibition at 0.3 μM (Human neutrophils [2]; 0.3 μM) [%]
– | 5.01 | 3.73 | – | – | O=C(O)c1cc(O)cc(C(=O)Nc2ccccc2-c2nnn[nH]2)c1O [IIa-001a-Tz, 3-(2-(1H-tetrazol-5-yl)phenylaminocarbonyl)-2,5-dihydroxybenzoic acid] | 24.18 | 74.2 | –
– | 4.37 | 3.92 | 5.54 | – | O=C(O)c1cc(O)ccc1NC(=O)c1cc(O)cc(C(=O)O)c1O [IIa-006a, 3-(2-carboxy-4-hydroxyphenylaminocarbonyl)-2,5-dihydroxybenzoic acid] | 20.29 | 84.3 | –
– | – | 4.49 | 5.48 | 6.50 | O=C(O)c1ccc(C(=O)O)c(NC(=O)c2cc(O)cc(C(=O)O)c2O)c1 [IIa-012a, 2-(3-carboxy-2,5-dihydroxybenzamido)terephthalic acid] | 7.5 | 44.8 | –
≤ 3.70 | 3.99 | 4.55 | – | – | O=C(O)c1cc(NC(=O)c2cc(O)cc(C(=O)O)c2O)cc(NC(=O)c2cc(O)cc(C(=O)O)c2O)c1 [IIb-010a, 3,5-Bis(2,5-dihydroxy-3-carboxybenzoylamino)benzoic acid] | 59.84 | 81.9 | –
